According to PubChem BioAssay AID2060602 (Molecular Pharmacology Branch, DTP, NCI, 2025):
pIC50: −log10 of the molar value. Where “and” joins values, the source holds several entries; their conditions need not be identical. Equal values may be shown once.

System: 648629-189-R-J1-PDC complex spheroids viability
Test: Anticancer human tumor 648629-189-R-J1-PDC patient-derived bladder carcinoma cell line growth inhibition [CLK]
Settings: for viability, T/C: stronger effect = lower value
Text: A high-throughput screen of multi-cell type tumor spheroids was designed to identify active combinations of […] and targeted small molecules. Complex spheroids include a stromal component modeled by human endothelial cells (HUVEC) and fibroblasts modeled by human mesenchymal stem cells (MSCs). The concentration ranges selected for each drug and investigational agent were based upon clinically achievable concentrations if the clinical Cmax of the agent was known.
Compounds. The drugs and investigational agents: cirtuvivint (SM08502; NSC835563), CC-671 (NSC850746), vemurafenib (NSC761431), tapotoclax (NSC804041), sotorasib (NSC818433), adagrasib (NSC831453), MRTX-1133 (NSC836407), BAY2416964 (NSC825713), copanlisib (NSC816437), inavolisib (NSC800729), abemaciclib (NSC768073), osimertinib (NSC779217), entinostat (NSC756642), eltanexor (KPT-8602, NSC794443), venetoclax (NSC766270), ceralasertib (NSC777638), bortezomib (NSC756655), olaparib (NSC753686), talazoparib (NSC767125), alisertib (NSC759677), peposertib (NSC802822), gemcitabine (NSC613327), 5-fluorouracil (NSC19893), SN-38 (NSC673596), oxaliplatin (NSC266046), paclitaxel (NSC125973), and doxorubicin (NSC123127), were obtained from the National Cancer Institute (NCI) Developmental Therapeutics Program Chemical Repository. The FDA-approved anticancer drug set is available from the Developmental Therapeutics Program at https://dtp.cancer.gov/organization/dscb/obtaining/available plates.htm. […] The stock solutions were prepared in dimethyl sulfoxide (DMSO, Sigma-Aldrich, St. Louis, MO, cat. D2650), except for the platinum complexes which were prepared in saline (Quality Biological, Gaithersburg, MD, cat. 114-055-101), at 800-fold the tested concentration and stored at -70 degrees C prior to their use. All drugs and investigational agents were tested over a range starting from a high concentration at or near the clinical Cmax and decreasing in half-log increments. If the clinical Cmax for an agent had not been determined, the highest concentration tested was 10 microM.
Cell Culture. All cells were maintained in an incubator at 37 degrees C and 5% CO2 with 95% humidity. The PDC lines were cultured according to standard operating procedures established by the NCI PDMR. Briefly, all PDCs were thawed and cultured in Matrigel-coated flasks prepared with a working solution of 1X Ham's F-12 nutrient mix, without supplementation (Invitrogen, Waltham, MA, cat. 11765054), 100 U/mL penicillin-streptomycin (Invitrogen, cat. 15140122), and 2.5% Matrigel (Corning Inc., Corning, NY, cat. 354248) for the first three passages. The 947758-054-R-J2-PDC line was cultured in 6B/Colon 1A media, which includes advanced DMEM/F-12 (Thermo Fisher Scientific, cat. 12634028), 10 mM HEPES (Thermo Fisher Scientific, cat. 15630080), 1X GlutaMAX supplement (Thermo Fisher Scientific, cat. 35050061), 0.1 mg/mL primocin (InvivoGen, cat. ant-pm-2), 10% defined fetal bovine serum, heat inactivated (HyClone Laboratories Inc., cat. SH30070.03HI), 1.25 mM N-Acetyl-L-cysteine (Sigma-Aldrich, cat. A9165), 10 mM nicotinamide (Sigma-Aldrich, cat. N0636), 1X B-27 supplement (Thermo Fisher Scientific, cat. 17504044), 1X N-2 supplement (Thermo Fisher Scientific, cat. 17502048), and 10 microM Y-27632 dihydrochloride (Tocris Bioscience, cat. 1254). The 876862-298-R-J1-PDC was cultured in 6E media, which includes all 6B/Colon 1A media components plus 50% L-WRN conditioned media (ATCC, cat. CRL-3276), 50 ng/mL recombinant human EGF recombinant protein (hEGF; Thermo Fisher Scientific, cat. PHG0311), 10 ng/mL recombinant human fibroblast growth factor 10 (hGFG-10; PeproTech, cat. 100-26), 1 ng/mL recombinant human fibroblast growth factor 2 (hFGF-2; PeproTech, cat. 100-18B), and 1 µM prostaglandin E2 (PGE2; Tocris, cat. 2296). The 227483-062-R1-J1-PDC line was cultured in Panc media, containing all 6E components except hFGF-2, with the addition of 500 nM SB-431542 (Selleckchem, cat. S1067) and 10 nM gastrin (Tocris, cat. 3006). […]
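For viability, T/C in this document: drug exposure lasted seven days before viability readout; 100% = DMSO vehicle control wells.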

C#Cc1c(F)ccc2cc(O)cc(-c3ncc4c(N5CC6CCC(C5)N6)nc(OCC56CCCN5CC(F)C6)nc4c3F)c12 (centres undefined)
viability, T/C (compound 0.0316 µM): 97.9% and 109% | viability, T/C (compound 0.1 µM): 94.2% and 99.3% | viability, T/C (compound 0.316 µM): 91.3% and 98% | viability, T/C (compound 1 µM): 91% and 107% | viability, T/C (compound 3.16 µM): 94.4% and 111% | viability, T/C (compound 10 µM): 88.9% and 101% | pIC50 (curve of compound): < 5.00

COc1c(OCCCN2CCOCC2)ccc2c3n(c(=NC(=O)c4cnc(N)nc4)nc12)CCN3 + CNC(=O)c1ccc(Nc2nc(OC3CCCC3)c3c(-c4ccc5nc(C)oc5c4)c[nH]c3n2)c(OC)c1
pIC50 (curve of first compound, second compound 0.0316 µM): 7.03 | pIC50 (curve of first compound, second compound 0.1 µM): 7.03 | pIC50 (curve of first compound, second compound 0.316 µM): > 8.50 | pIC50 (curve of first compound, second compound 1 µM): > 8.50 | pIC50 (curve of first compound, second compound 3.16 µM): > 8.50 | pIC50 (curve of first compound, second compound 10 µM): > 8.50 | viability, T/C (second compound 0.0316 µM, first compound 0.00316 µM): 94.5% | viability, T/C (second compound 0.0316 µM, first compound 0.01 µM): 92.6% | viability, T/C (second compound 0.0316 µM, first compound 0.0316 µM): 88.2% | viability, T/C (second compound 0.0316 µM, first compound 0.1 µM): 46.9% | viability, T/C (second compound 0.0316 µM, first compound 0.316 µM): 15.3% | viability, T/C (second compound 0.0316 µM, first compound 1 µM): 8.61% | viability, T/C (second compound 0.1 µM, first compound 0.00316 µM): 101% | viability, T/C (second compound 0.1 µM, first compound 0.01 µM): 105% | viability, T/C (second compound 0.1 µM, first compound 0.0316 µM): 80.6% | viability, T/C (second compound 0.1 µM, first compound 0.1 µM): 49.1% | viability, T/C (second compound 0.1 µM, first compound 0.316 µM): 17.6% | viability, T/C (second compound 0.1 µM, first compound 1 µM): 8.37% | viability, T/C (second compound 0.316 µM, first compound 0.00316 µM): 30.4% | viability, T/C (second compound 0.316 µM, first compound 0.01 µM): 31.4% | viability, T/C (second compound 0.316 µM, first compound 0.0316 µM): 34.1% | viability, T/C (second compound 0.316 µM, first compound 0.1 µM): 31.3% | viability, T/C (second compound 0.316 µM, first compound 0.316 µM): 17.9% | viability, T/C (second compound 0.316 µM, first compound 1 µM): 8.81% | viability, T/C (second compound 1 µM, first compound 0.00316 µM): 19.9% | viability, T/C (second compound 1 µM, first compound 0.01 µM): 19.9% | viability, T/C (second compound 1 µM, first compound 0.0316 µM): 16.1% | viability, T/C (second compound 1 µM, first compound 0.1 µM): 14.5% | viability, T/C (second compound 1 µM, first compound 0.316 µM): 11.1% | viability, T/C (second compound 1 µM, first compound 1 µM): 5.6% | viability, T/C (second compound 3.16 µM, first compound 0.00316 µM): 16.3% | viability, T/C (second compound 3.16 µM, first compound 0.01 µM): 15.8% | viability, T/C (second compound 3.16 µM, first compound 0.0316 µM): 16.1% | viability, T/C (second compound 3.16 µM, first compound 0.1 µM): 11.2% | viability, T/C (second compound 3.16 µM, first compound 0.316 µM): 7.88% | viability, T/C (second compound 3.16 µM, first compound 1 µM): 4.37% | viability, T/C (second compound 10 µM, first compound 0.00316 µM): 19.9% | viability, T/C (second compound 10 µM, first compound 0.01 µM): 18.3% | viability, T/C (second compound 10 µM, first compound 0.0316 µM): 16.9% | viability, T/C (second compound 10 µM, first compound 0.1 µM): 13.4% | viability, T/C (second compound 10 µM, first compound 0.316 µM): 9.26% | viability, T/C (second compound 10 µM, first compound 1 µM): 5.85%
